Assay results taken from patent publication US12310954B2, “Salivary gland regeneration” (The Regents of the University of California, priority 2018, dated 2025).

Legend:
[1] = tested on: SOX2^+ cells in SLG explants; experiment: Ex vivo lineage tracing in adult salivary gland explants (Sox2CreERT2; Rosa26mTmG); format: cell-based, mouse; settings: 200 nM, 48 h
Method: Salivary glands from Sox2^CreERT2; Rosa26^mTmG mice (recombination induced 24 h prior) were mechanically dissected into <1-mm pieces, placed in complete media in the presence or absence of 200 nM CCh (Sigma-Aldrich) or 10 μM 4-DAMP (Tocris), and cultured for 48 h before being fixed for immunofluorescence. In some cases, mice were irradiated with three doses of 5 Gy before glands were taken for culture as above.
Whole-mount salivary gland and tissue section immunofluorescence analysis has been previously described (Knox et al., 2010). In brief, tissue was fixed with either ice-cold acetone/methanol (1:1) for 1 min or 4% PFA for 20-30 min followed by permeabilizing with 0.1-0.3% Triton X. Tissue was blocked overnight at 4° C. with 10% Donkey Serum (Jackson Laboratories, ME), 1% BSA (Sigma-Aldrich), and MOM IgG-blocking reagent (Vector Laboratories, CA) in 0.01% PBS-Tween 20. […] Antibodies were detected using Cy2-, Cy3-, or Cy5-conjugated secondary Fab fragment antibodies (Jackson Laboratories) and nuclei stained using Hoechst 33342 (1:1,000, Sigma-Aldrich). Fluorescence was analyzed using a Leica Sp5 confocal microscope and NIH ImageJ software.
For immunofluorescent analyses (e.g., FIG. 2D), cells positively stained for markers were counted using ImageJ. Acinar cell size was measured using ImageJ. […]

[2] = tested on: human salivary gland (SMG or PG) explants; experiment: Human salivary gland explant culture with CCh, qPCR; format: cell-based; settings: 200 nM, 4 h, vs untreated
Text: Adult human salivary gland was obtained from discarded, non-identifiable tissue with consent from patients undergoing neck resection (age 28-78, male and female). Informed consent was given by all subjects and experiments conformed to the principles set out in the WMA Declaration of Helsinki and the Department of Health and Human Services Belmont Report. Patients had either had no irradiation therapy (non-IR) or fractionated radiation therapy (IR)<2 years prior to surgery. Tissue was immediately placed in 4% PFA, RNAlater (Qiagen) or DMEM (Thermo Fisher) for live cell explant culture. For ex vivo culture, non-IR tissue was dissected into <1-mm pieces and cultured in serum-free DMEM/F12 containing holotransferrin and ascorbic acid. For explant assays, the tissue (SMG and PG) was incubated with 50-200 nM CCh (200 nM CCh shown in results) for 4 h before being lysed for RNA. For salivary gland explant-parasympathetic submandibular ganglia […] co-culture, tissue was dissected into <1-mm pieces and cultured on a floating filter above serum-free media. E13 mouse parasympathetic submandibular ganglia were isolated as previously described (Knox et al., 2010). One parasympathetic submandibular ganglion per explant was placed next to the human salivary gland and cultured for 7 days and either fixed for immunofluorescent analysis or lysed for RNA.
RNA was isolated from whole tissue using RNAqueous Micro Kit (Ambion). Total RNA samples were DNase-treated (Ambion) prior to cDNA synthesis using SuperScript reagents (Invitrogen, CA). SYBR green qPCR was performed using 5 ng (mouse) or 4-10 ng (human) of cDNA and primers designed using Primer3 and Beacon Designer software or described on PrimerBank (pga.mgh.harvard.edu/primerbank/). Melt curves and primer efficiency were determined as previously described (Hoffman et al., 2002). Gene expression was normalized to the housekeeping genes S18 and S29 (Rps18 and Rsp29) or GAPDH for mouse and GAPDH for human and to the corresponding experimental control. Reactions were run in triplicate and experiments performed 2-3 times.

[3] = tested on: acinar cells of the sublingual gland; experiment: Intraglandular injection of cevimeline, acinar cell proliferation; format: in vivo, mouse; settings: 10 mg/kg (20 μL) directly into sublingual gland, 18 hrs, non-irradiated mice, vs saline
Method: Given our previous findings that systemic administration of a muscarinic mimetic promotes salivary gland proliferation, we next determined if local intraglandular injection was also able to promote a mitotic response. To determine if cevimeline could act locally on the salivary gland to induce acinar cell proliferation we injected cevimeline at 10 mg/kg of body weight (20 μL) directly into the sublingual gland and measured proliferation after 18 hrs.
For Intraglandular injection of cevimeline, mice were administered with analgesics 30 min prior to surgery (carprofen and buprenorphine; Patterson Veterinary and Buprenex; 0.1 mg/kg and […] (IP), respectively) and anaesthetized via inhalation with 2% isoflurane/O2mix. The surgical area was shaved and prepared for incision with alternating iodine and alcohol washes, followed by local anesthetic (lidocaine; Hospira Inc., 8 mg/kg). […]
Tissue section immunofluorescence analysis was processed as follows. […] Antibodies were detected using Cy2-, Cy3- or Cy5-conjugated secondary Fab fragment antibodies (1:300, Jackson Laboratories) and nuclei stained using Hoescht 33342 (1:1000, AnaSpec Inc.). […] Slides were mounted using Fluoromount-G (SouthernBiotech) and fluorescence was analyzed using a Leica Sp5 confocal microscope. Image processing and quantification was performed using NIH ImageJ software.

[4] = In vitro cevimeline release from alginate hydrogels (LC-MS/MS); format: physicochemical
Method: A Shimadzu Prominence LC-20ADXR system interfaced to a 4500 QTrap mass spectrometer with an electrospray ionization (ESI) source was operated for LC-MS/MS analysis. The chromatographic separation was achieved using a Phenomenex KineteX® C18 (50×3 mm, 2.6 μm) column coupled with a Phenomenex SecurityGuard C18 guard column (3 mm×2.0 mm). The column temperature was controlled at 30° C. Mobile phase A was 0.1% Trifluoroacetic acid in water and mobile phase B was acetonitrile (ACN). The injection volume was 10 μL and the flow rate was 0.5 mL/min. The gradient condition was: (time/minute, % mobile phase B): (0, 15), (1, 15), (2.5, 22.8), (2.6, 98), (5, 98), (5.1, 15), and (8, 15). The source parameters included curtain gas of 45 psi, ion spray voltage of 4000 V, ion source temperature of 550, and medium collision gas.
Standard working solutions of cevimeline were prepared over the range from of 10.0-10000.0 ng/mL in methanol. Working solutions were spiked into 100 μL of DMEM to generate the standards or QC samples. The final concentrations of the calibration standards were 0.5, 1.0, 2.5, 5.0, 10.0, 25.0, 50.0 and 100.0, 250.0 and 500 ng/mL in DMEM. The QC samples were 0.9, 4, 30.0 and 400.0 ng/mL.
For the sample preparation step, to each 100 μL DMEM, 10 μL IS working solution (1000 ng/mL) was added. 96-Well Protein Precipitation Filter Plate Sigma-Aldrich (St. Louis, MO) and 300 μl of MeOH:ACN (15:85) were used for protein precipitation. 200 μl of NH4OH 5% was added to 200 μl of the sample after filtration and 10 μl was injected to the LCMS system. The bioanalytical method was validated in accordance with current U.S. FDA guidelines including selectivity, linearity, intra- and interday precision and accuracy, recovery and stability (“Guidance for Industry, Bioanalytical Method Validation,”2018 fda.gov/media/70858/download).
In vitro cevimeline (CV) release from OA hydrogels was tested by creating 1 mm×4 mm disks with either a 2 or 5% oxidation at a weight/volume of 2, 5, or 10%. Alginate+cevimeline (Abcam, ab141317) hydrogels were created by resuspending the drug at the desired concentration in the DMEM prior to mixing with the lyophilized OA, subsequent crosslinking proceeds as described above to encapsulate the drug with the OA hydrogel. Three 4 mm alginate+cevimeline hydrogels were placed in 0.4 μm transwell in a 12-well plate containing 3.2 ml of DMEM incubating in 37° C. with slow continuous agitation (100 RPM). Sample media (3 ml DMEM) was collected and replenished at 4 hours, 1-, 2-, 3-, 4-, 5-, and 7 days (D). Three hydrogels were pooled together with an average of 3-5 separate replicates (samples) at each time point. Sample media was stored at −20° C. until mass spectroscopy analysis was performed. […]

[5] = tested on: acinar cells of irradiated salivary glands; experiment: Cell proliferation in salivary glands after gamma-radiation induced damage; format: in vivo, mouse; settings: 14 days after 10Gy, 18 hrs, vs saline
[6] = cited from earlier work
[7] = long term oral use in patients; cited from earlier work

For `C[N+](C)(C)CCOC(N)=O` [CCh, carbachol], the “GFP^+ clones” value ([1]; healthy (no IR) SLG tissue) was “increase”, the “cell proliferation (Ki67^+ cells)” value ([1]; healthy SLG tissue) was “increase” and the “GFP^+ cells in IR explants” value ([1]; irradiated SLG explants, compared to IR alone) was “increased”. For the same compound, the “expression of AQP3” value ([2]; n=4 individuals) was “significantly increased”, the “expression of AQP5” value ([2]; n=4 individuals) was “significantly increased” and the “expression of CHRM1” value ([2]; n=4 individuals) was “significantly increased”. For the same compound, the “expression of CHRM3” value ([2]; n=4 individuals) was “significantly increased”, the “expression of MIST1” value ([2]; n=4 individuals) was “significantly increased” and the “expression of SOX2” value ([2]; n=4 individuals) was “significantly increased”. For the same compound, the KRT19 gene expression [2] was “increase”, the “expression of ductal marker EGFR” value [2] was “remained unchanged” and the “expression of ductal marker KRT7” value [2] was “remained unchanged”. The “expression of ductal marker KRT8” value [2] was “remained unchanged”.
For `CC1OC2(CS1)CN1CCC2CC1` (stereo not shown) [cevimeline], the acinar cell proliferation [3] was “significantly increased”, the “release rates with different starting drug loading” value ([4]; 2% OA hydrogels at 5 wt %, different initial cevimeline loading per disk) was “remain relatively consistent” and the “cevimeline released by 2 days” value ([4]; from OA alginate hydrogels (2 or 5% OA; 2, 5 or 10 wt %)) was “over 85±5%”. The “day by which all cevimeline had been released” value ([4]; from OA hydrogels) was at most 4 days, the “duration of sustained release” value ([4]; from alginate hydrogel) was 2 days and the “proliferation of acinar cells in irradiated mice” value ([5]; local (intraglandular) 10 mg/kg) was “increased”. For the same compound, the “proliferation of acinar cells in irradiated mice” value ([5]; systemic (i.p.) 10 mg/kg) was “increased”, the pKA [6] was 9.5 and the salivary gland function [7] was “improves salivary gland function”.
